{"source": "patent US7632933B2", "about": "“Corticotropin releasing factor 2 receptor agonists” (priority 2002, dated 2009)", "key": {"[1]": {"target": "T1, CRF2R (Homo sapiens, UniProt Q13324)", "T1 sequence (Q13324 1-411)": "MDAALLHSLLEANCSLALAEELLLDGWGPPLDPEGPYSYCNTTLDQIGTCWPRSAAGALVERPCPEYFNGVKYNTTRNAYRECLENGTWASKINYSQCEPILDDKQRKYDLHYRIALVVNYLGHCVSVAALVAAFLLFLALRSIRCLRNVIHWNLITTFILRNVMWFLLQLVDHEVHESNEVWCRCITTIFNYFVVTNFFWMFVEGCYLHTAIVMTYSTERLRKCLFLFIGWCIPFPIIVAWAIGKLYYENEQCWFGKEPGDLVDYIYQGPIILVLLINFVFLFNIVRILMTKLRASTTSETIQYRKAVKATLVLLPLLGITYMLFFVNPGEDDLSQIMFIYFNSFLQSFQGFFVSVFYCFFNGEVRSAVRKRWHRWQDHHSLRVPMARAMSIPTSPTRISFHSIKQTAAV", "experiment": "CRF2R agonist activity (EC50 and Emax), called comparative CRF binding", "assay_type": "cell-based", "conditions": "CRF2R", "source_text": "(§1) The pharmacological activity and selectivity of the peptides of present invention can be determined using published test procedures. See, e.g, U.S. patent application Ser. No. 09/799,978. Because CRF2R and CRF1R are homologous proteins, it is expected that a certain proportion of agonists for CRF2R will also function as agonists of CRF1R. As discussed above, activation of CRF1R induces activation of the HPA axis since increased corticosteroid production leads to skeletal muscle atrophy. In most cases in which an increase in muscle mass or function is desired, it is not desirable to activate the HPA axis.\n(§2) Because it is desirable to discriminate binding between CRF2R, as compared with CRF1R, the assays described above may be conducted using a cell, or membrane from a cell, which expresses only CRF2R or the assays can be conducted with a recombinant source of CRF2R. Cells expressing both forms of CRFR may be modified using homologous recombination to inactivate or otherwise disable the CRF1R gene. Alternatively, if the source of CRFR contains more than one CRFR type, the background signal produced by the receptor which is not of interest must be subtracted from the signal obtained in the assay. […] Known antagonists of CRFRs include, but are not limited to, antalarmin (CRF1R selective), antisauvagine-30 (CRF2R selective) and astressin (nonselective for CRF1R/CRF2R).\n(§3) Cell-based assays include the steps of contacting cells which express CRF1R or CRF2R with a peptide of the present invention or control and measuring activation of the CRFR by measuring the expression or activity of components of the CRFR signal transduction pathways.\n(§4) For example, after contact with a peptide of the present invention, lysates of the cells can be prepared and assayed for induction of cAMP. cAMP is induced in response to Gαs activation. Because Gαs is activated by receptors other than CRFR and because a test peptide may be exerting its effect through CRFRs or by another mechanism, two control comparisons are relevant for determining whether the peptide increases levels of cAMP via activation of a CRFR. One control compares the cAMP level of cells contacted with the peptide and the cAMP level of cells contacted with a control compound (i.e., the vehicle in which the peptide is dissolved).\n(§5) In one example, cAMP induction is measured with the use of DNA constructs containing the cAMP responsive element linked to any of a variety of reporter genes can be introduced into cells expressing CRFRs. Such reporter genes include, but are not limited to, chloramphenicol acetyltransferase (CAT), luciferase, glucuronide synthetase, growth hormone, fluorescent proteins (e.g., Green Fluorescent Protein), or alkaline phosphatase. Following exposure of the cells to the peptide, the level of reporter gene expression can be quantitated to determine the peptide's ability to increase cAMP levels and thus determine the peptide's ability to activate the CRFR.\n(§6) In addition to using cells expressing full length CRFRs, cells can be engineered which express CRFRs containing the ligand binding domain of the receptor coupled to, or physically modified to contain, reporter elements or to interact with signaling proteins. For example, a wild type CRFR or CRFR fragment can be fused to a G-protein resulting in activation of the fused G-protein upon agonist binding to the CRFR portion of the fusion protein. […] In addition, alternative pathways for induction of the CRE reporter could be eliminated to reduce basal levels."}, "[2]": {"target": "T2, CRF1R (Homo sapiens, UniProt P34998)", "T2 sequence (P34998 24-415)": "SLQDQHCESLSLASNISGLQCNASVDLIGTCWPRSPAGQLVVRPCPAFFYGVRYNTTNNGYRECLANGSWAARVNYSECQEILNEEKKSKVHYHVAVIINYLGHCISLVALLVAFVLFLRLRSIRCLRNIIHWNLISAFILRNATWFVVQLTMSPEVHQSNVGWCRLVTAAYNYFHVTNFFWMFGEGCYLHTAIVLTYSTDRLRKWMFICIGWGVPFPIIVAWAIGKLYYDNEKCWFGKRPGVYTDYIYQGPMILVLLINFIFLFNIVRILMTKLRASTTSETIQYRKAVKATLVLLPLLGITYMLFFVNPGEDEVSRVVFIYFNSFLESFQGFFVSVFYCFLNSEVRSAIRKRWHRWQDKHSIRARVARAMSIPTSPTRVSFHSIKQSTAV", "experiment": "CRF1R agonist activity (EC50 and Emax), called comparative CRF binding", "assay_type": "cell-based", "conditions": "CRF1R", "source_text": "as §1, §2, §3, §4, §5, §6"}}, "note": "Where two headings read alike, the source gives them in different places. Ends that are not written are not given here. Peptide text beside a SMILES is read from it.", "data": [{"compound": "SQEPPISLDLPLHLLREVLEMTKADQLAQQAHSNRKLLDIA-NH2 [compound 102]", "values": [{"measurement": "EC50", "setting": "[1]; read-out: CRF2R EC50", "result": "≥ 100", "unit": "nM"}, {"measurement": "EC50", "setting": "[2]; read-out: CRF1R EC50", "result": "≥ 100", "unit": "nM"}]}, {"compound": "CC[C@H](C)[C@H](N)C(=O)N[C@H](C(=O)N[C@@H](CC(C)C)C(=O)N[C@@H](CO)C(=O)N[C@@H](CC(C)C)C(=O)N[C@@H](CC(=O)O)C(=O)N[C@H](C(=O)N1CCC[C@H]1C(=O)N[C@H](C(=O)NCC(=O)N[C@@H](CC(C)C)C(=O)N[C@@H](CC(C)C)C(=O)N[C@@H](CCC(N)=O)C(=O)N[C@H](C(=O)N[C@@H](CC(C)C)C(=O)N[C@@H](CC(C)C)C(=O)N[C@@H](CCC(=O)O)C(=O)N[C@@H](CCC(N)=O)C(=O)N[C@H](C(=O)N[C@@H](CCCCN)C(=O)N[C@@H](C)C(=O)N[C@@H](CCCNC(=N)N)C(=O)N[C@@H](C)C(=O)N[C@@H](C)C(=O)N[C@@H](CCCNC(=N)N)C(=O)N[C@@H](CCC(=O)O)C(=O)N[C@@H](CCC(N)=O)C(=O)N[C@@H](C)C(=O)N[C@H](C(=O)N[C@H](C(=O)N[C@@H](CC(N)=O)C(=O)N[C@@H](C)C(=O)N[C@@H](CCCNC(=N)N)C(=O)N[C@H](C(=O)N[C@@H](CC(C)C)C(=O)N[C@@H](C)C(=O)N[C@@H](CCCNC(=N)N)C(=O)N[C@H](C(N)=O)C(C)C)[C@@H](C)CC)[C@@H](C)O)[C@@H](C)O)[C@@H](C)O)[C@@H](C)CC)[C@@H](C)CC)C(C)C)C(C)C", "note": "[compound 129] (H-IVLSLDVPIGLLQILLEQTKARAAREQATTNARILARV-NH2)", "values": [{"measurement": "CRF2R (Emax %)", "setting": "[1]; Emax", "result": "(92) %"}, {"measurement": "EC50", "setting": "[1]; read-out: CRF2R EC50", "result": 3.83, "unit": "nM"}, {"measurement": "CRF1R (Emax %)", "setting": "[2]; Emax", "result": "(12) %"}]}, {"compound": "SQEPPISLDLPIHLLREVLEMTKADQLAQQAHSNRKLLDIA-NH2 [compound 94]", "values": [{"measurement": "EC50", "setting": "[1]; read-out: CRF2R EC50", "result": "≥ 100", "unit": "nM"}, {"measurement": "EC50", "setting": "[2]; read-out: CRF1R EC50", "result": "≥ 100", "unit": "nM"}]}, {"compound": "CC[C@H](C)[C@H](N)C(=O)N[C@H](C(=O)N[C@@H](CC(C)C)C(=O)N[C@@H](CO)C(=O)N[C@@H](CC(C)C)C(=O)N[C@@H](CC(=O)O)C(=O)N[C@H](C(=O)N1CCC[C@H]1C(=O)N[C@H](C(=O)NCC(=O)N[C@@H](CC(C)C)C(=O)N[C@@H](CC(C)C)C(=O)N[C@@H](CCC(N)=O)C(=O)N[C@H](C(=O)N[C@@H](CC(C)C)C(=O)N[C@@H](CC(C)C)C(=O)N[C@@H](CCC(=O)O)C(=O)N[C@@H](CCC(N)=O)C(=O)N[C@@H](C)C(=O)N[C@@H](CCCNC(=N)N)C(=O)N[C@@H](Cc1c[nH]cn1)C(=O)N[C@@H](C)C(=O)N[C@@H](Cc1c[nH]cn1)C(=O)N[C@@H](C)C(=O)N[C@@H](Cc1c[nH]cn1)C(=O)N[C@@H](C)C(=O)N[C@@H](Cc1c[nH]cn1)C(=O)N[C@@H](C)C(=O)N[C@@H](Cc1c[nH]cn1)C(=O)N[C@@H](C)C(=O)N[C@@H](CCC(N)=O)C(=O)N[C@@H](C)C(=O)N[C@@H](Cc1c[nH]cn1)C(=O)N[C@H](C(=O)N[C@@H](CC(C)C)C(=O)N[C@@H](C)C(=O)N[C@@H](Cc1c[nH]cn1)C(=O)N[C@H](C(N)=O)C(C)C)[C@@H](C)CC)[C@@H](C)CC)[C@@H](C)CC)C(C)C)C(C)C", "note": "[compound 369] (H-IVLSLDVPIGLLQILLEQARHAHAHAHAHAQAHILAHV-NH2)", "values": [{"measurement": "EC50", "setting": "[1]; read-out: CRF2R EC50", "result": "≥ 100", "unit": "nM"}, {"measurement": "EC50", "setting": "[2]; read-out: CRF1R EC50", "result": "≥ 1000", "unit": "nM"}]}, {"compound": "CC[C@H](C)[C@H](N)C(=O)N[C@H](C(=O)N[C@@H](CC(C)C)C(=O)N[C@@H](CO)C(=O)N[C@@H](CC(C)C)C(=O)N[C@@H](CC(=O)O)C(=O)N[C@H](C(=O)N1CCC[C@H]1C(=O)N[C@H](C(=O)NCC(=O)N[C@@H](CC(C)C)C(=O)N[C@@H](CC(C)C)C(=O)N[C@@H](CCC(N)=O)C(=O)N[C@H](C(=O)N[C@@H](CC(C)C)C(=O)N[C@@H](CC(C)C)C(=O)N[C@@H](CCC(=O)O)C(=O)N[C@H](C(=O)N[C@@H](CCC(=O)O)C(=O)N[C@@H](CCCCN)C(=O)N[C@@H](CCC(N)=O)C(=O)N[C@@H](CCC(=O)O)C(=O)N[C@@H](CCCCN)C(=O)N[C@@H](CCC(=O)O)C(=O)N[C@@H](CCCCN)C(=O)N[C@@H](CCC(N)=O)C(=O)N[C@@H](CCC(N)=O)C(=O)N[C@@H](C)C(=O)N[C@@H](C)C(=O)N[C@@H](CC(N)=O)C(=O)N[C@@H](CC(N)=O)C(=O)N[C@@H](CCCNC(=N)N)C(=O)N[C@@H](CC(C)C)C(=O)N[C@@H](CC(C)C)C(=O)N[C@@H](CC(C)C)C(=O)N[C@@H](CC(=O)O)C(=O)N[C@H](C(=O)N[C@H](C(N)=O)[C@@H](C)CC)[C@@H](C)O)[C@@H](C)CC)[C@@H](C)CC)[C@@H](C)CC)C(C)C)C(C)C", "note": "[compound 158] (H-IVLSLDVPIGLLQILLEIEKQEKEKQQAANNRLLLDTI-NH2)", "values": [{"measurement": "EC50", "setting": "[1]; CRF2R EC50 (nM)", "result": 6.37, "unit": "nM"}, {"measurement": "EC50", "setting": "[2]; CRF1R EC50 (nM)", "result": "> 100", "unit": "nM"}]}, {"compound": "CC[C@H](C)[C@H](N)C(=O)N[C@H](C(=O)N[C@@H](CC(C)C)C(=O)N[C@@H](CO)C(=O)N[C@@H](CC(C)C)C(=O)N[C@@H](CC(=O)O)C(=O)N[C@H](C(=O)N1CCC[C@H]1C(=O)NCC(=O)N1CCC[C@H]1C(=O)N[C@@H](CC(C)C)C(=O)N[C@@H](CC(C)C)C(=O)N[C@@H](CCC(N)=O)C(=O)N[C@H](C(=O)N[C@@H](CC(C)C)C(=O)N[C@@H](CC(C)C)C(=O)N[C@@H](CCC(=O)O)C(=O)N[C@@H](CCC(N)=O)C(=O)N[C@H](C(=O)N[C@@H](CCCCN)C(=O)N[C@@H](CCC(N)=O)C(=O)N[C@@H](CCC(=O)O)C(=O)N[C@@H](C)C(=O)N[C@@H](C)C(=O)N[C@@H](CCCNC(=N)N)C(=O)N[C@@H](CCC(=O)O)C(=O)N[C@@H](CCC(N)=O)C(=O)N[C@@H](C)C(=O)N[C@H](C(=O)N[C@H](C(=O)N[C@@H](CC(N)=O)C(=O)N[C@@H](C)C(=O)N[C@@H](CCCNC(=N)N)C(=O)N[C@H](C(=O)N[C@@H](CC(C)C)C(=O)N[C@@H](C)C(=O)N[C@@H](CCCNC(=N)N)C(=O)N[C@H](C(N)=O)C(C)C)[C@@H](C)CC)[C@@H](C)O)[C@@H](C)O)[C@@H](C)O)[C@@H](C)CC)C(C)C)C(C)C", "note": "[compound 5] (H-IVLSLDVPGPLLQILLEQTKQEAAREQATTNARILARV-NH2)", "values": [{"measurement": "EC50", "setting": "[1]; read-out: CRF2R EC50", "result": "≥ 100", "unit": "nM"}, {"measurement": "EC50", "setting": "[2]; read-out: CRF1R EC50", "result": "≥ 100", "unit": "nM"}]}, {"compound": "SQEPPISLDLPTQLLREVLEMTKADQLAQQAHSNRKLLDIA-NH2 [compound 105]", "values": [{"measurement": "EC50", "setting": "[1]; read-out: CRF2R EC50", "result": "≥ 100", "unit": "nM"}, {"measurement": "EC50", "setting": "[2]; read-out: CRF1R EC50", "result": "≥ 100", "unit": "nM"}]}]}
